Experiments:
human Cat L = human Cat L (Homo sapiens (Human), UniProt P07711); test: Cathepsin enzyme inhibition assay (fluorogenic peptide substrate), human Cat L; type: biochemical; settings: human Cat L 1 nM, substrate Z-Val-Val-Arg-AMC 20 μM, pH 6.5
Experimental: (§1) Cathepsin Enzyme Inhibition Assay
(§2) Enzyme activity is measured by observing the increase in fluorescence intensity caused by cleavage of a peptide substrate containing a fluorophore whose emission is quenched in the intact peptide.
(§3) Assay buffer: 100 mM potassium phosphate pH 6.5, EDTA-Na 5 mM, Triton X-100 0.001%, DTT 5 mM.
(§4) Enzymes (all at 1 nM): human and mouse Cathepsin S, Cat K, Cat B, Cat L.
(§5) Substrate (20 μM): Z-Val-Val-Arg-AMC, except for Cat K which uses Z-Leu-Arg-AMC (both from Bachem).
(§6) AMC=7-Amino-4-Methyl-Coumarin.
(§7) Excitation 360 nm, Emission 465 nm.
(§8) Enzyme is added to the substance dilutions in 96-well microtitre plates and the reaction is started with substrate. […] IC50 are calculated by standard methods.
(§9) Inhibition of human Cat S, mouse Cat S, human Cat K, human Cat B, human Cat L and mouse Cat L have been measured separately.

human Cathepsin S = human Cathepsin S (Homo sapiens (Human), UniProt P25774); test: Cathepsin enzyme inhibition assay (fluorogenic peptide substrate), human Cat S; type: biochemical; settings: human Cat S 1 nM, substrate Z-Val-Val-Arg-AMC 20 μM, pH 6.5
human Cathepsin S, sequence (P25774 115-331): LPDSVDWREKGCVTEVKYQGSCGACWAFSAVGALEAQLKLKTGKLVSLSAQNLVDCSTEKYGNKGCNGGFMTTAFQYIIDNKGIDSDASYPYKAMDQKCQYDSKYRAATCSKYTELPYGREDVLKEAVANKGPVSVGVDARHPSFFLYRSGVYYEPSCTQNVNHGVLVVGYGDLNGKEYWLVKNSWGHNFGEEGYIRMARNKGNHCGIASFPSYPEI
Experimental: as §1, §2, §3, §4, §5, §6, §7, §8, §9

human Cat L, sequence (P07711 114-333): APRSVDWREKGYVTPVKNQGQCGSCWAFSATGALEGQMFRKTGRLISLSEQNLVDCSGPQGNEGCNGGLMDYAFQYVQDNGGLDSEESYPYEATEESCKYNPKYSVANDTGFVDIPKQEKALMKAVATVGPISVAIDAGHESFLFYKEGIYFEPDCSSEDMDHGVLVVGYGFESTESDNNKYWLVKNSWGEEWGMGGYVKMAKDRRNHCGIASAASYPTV

IC50 (human Cat L) [nM]	IC50 (human Cathepsin S) [nM]	SMILES
35200	4.27	N#CC1(NC(=O)[C@@H]2C[C@@H](S(=O)(=O)c3ccccc3-n3ccnn3)CN2C(=O)C2(c3ncc(Cl)cc3F)CC2)CC1 [Example 47, (2S,4R)-1-[1-(5-Chloro-3-fluoro-pyridin-2-yl)-cyclopropanecarbonyl]-4-(2-[1,2,3]triazol-1-yl-benzenesulfonyl)-pyrrolidine-2-carboxylic acid (1-cyano-cyclopropyl)-amide]
17400	159	N#CC1(NC(=O)[C@@H]2C[C@@H](S(=O)(=O)c3ccccc3-n3cccn3)CN2C(=O)C2(c3ncc(Cl)cc3F)CC2)CC1 [Example 46]
3	0.6	N#CC1(NC(=O)[C@@H]2C[C@@H](S(=O)(=O)c3ccccc3F)CN2C(=O)C2(c3ncc(I)cc3F)CC2)CC1 [Example 41, (2S,4R)-4-(2-Fluoro-benzenesulfonyl)-1-[1-(3-fluoro-5-iodo-pyridin-2-yl)-cyclopropanecarbonyl]-pyrrolidine-2-carboxylic acid (1-cyano-cyclopropyl)-amide]
28400	327	N#CC1(NC(=O)[C@@H]2C[C@@H](S(=O)(=O)c3ccccc3-n3cncn3)CN2C(=O)C2(c3ncc(I)cc3F)CC2)CC1 [Example 45, (2S,4R)-1-[1-(3-Fluoro-5-iodo-pyridin-2-yl)-cyclopropanecarbonyl]-4-(2-[1,2,4]triazol-1-yl-benzenesulfonyl)-pyrrolidine-2-carboxylic acid (1-cyano-cyclopropyl)-amide]
72.2	0.779	Cc1ncccc1-c1ccc(S(=O)(=O)[C@@H]2C[C@@H](C(=O)NC3(C#N)CC3)N(C(=O)C3(c4ncc(Cl)cc4Cl)CC3)C2)c(Cl)c1 [Example 37, (2S,4R)-4-[2-Chloro-4-(2-methyl-pyridin-3-yl)-benzenesulfonyl]-1-[1-(3,5-dichloro-pyridin-2-yl)-cyclopropanecarbonyl]-pyrrolidine-2-carboxylic acid (1-cyano-cyclopropyl)-amide]
43.6	0.696	Cn1cc(-c2ccc(S(=O)(=O)[C@@H]3C[C@@H](C(=O)NC4(C#N)CC4)N(C(=O)C4(c5ncc(C(F)(F)F)cc5F)CC4)C3)c(Cl)c2)cn1 [Example 39, (2S,4R)-4-[2-Chloro-4-(1-methyl-1H-pyrazol-4-yl)-benzenesulfonyl]-1-[1-(3-fluoro-5-trifluoromethyl-pyridin-2-yl)-cyclopropanecarbonyl]-pyrrolidine-2-carboxylic acid (1-cyano-cyclopropyl)-amide]

More lines, now with the values behind:

SMILES	IC50 (human Cat L) [nM]	IC50 (human Cathepsin S) [nM]
N#CC1(NC(=O)[C@@H]2C[C@@H](S(=O)(=O)c3cc(C(F)(F)F)ccc3Cl)CN2C(=O)C2(c3ccc(Cl)cn3)CC2)CC1 [Example 29, (2S,4R)-1-[1-(5-Chloro-pyridin-2-yl)-cyclopropanecarbonyl]-4-(2-chloro-5-trifluoromethyl-benzenesulfonyl)-pyrrolidine-2-carboxylic acid (1-cyano-cyclopropyl)-amide]	362	0.618
N#CC1(NC(=O)[C@@H]2C[C@@H](S(=O)(=O)c3ncccc3C(F)(F)F)CN2C(=O)C2(c3ncc(Cl)cc3F)CC2)CC1 [Example 25, (2S,4R)-1-[1-(5-Chloro-3-fluoro-pyridin-2-yl)-cyclopropanecarbonyl]-4-(3-trifluoromethyl-pyridine-2-sulfonyl)-pyrrolidine-2-carboxylic acid (1-cyano-cyclopropyl)-amide]	13200	3.21
N#CC1(NC(=O)[C@@H]2C[C@@H](S(=O)(=O)c3ccc(OCC(F)(F)F)cc3Cl)CN2C(=O)C2(c3ncc(Cl)cc3F)CC2)CC1 [Example 6, (2S,4R)-1-[1-(5-Chloro-3-fluoro-pyridin-2-yl)-cyclopropanecarbonyl]-4-[2-chloro-4-(2,2,2-trifluoro-ethoxy)-benzenesulfonyl]-pyrrolidine-2-carboxylic acid (1-cyano-cyclopropyl)-amide]	44.5	0.675
Cc1ncccc1-c1ccc(S(=O)(=O)[C@@H]2C[C@@H](C(=O)NC3(C#N)CC3)N(C(=O)C3(c4ncc(Cl)cc4F)CC3)C2)c(Cl)c1 [Example 34, (2S,4R)-1-[1-(5-Chloro-3-fluoro-pyridin-2-yl)-cyclopropanecarbonyl]-4-[2-chloro-4-(2-methyl-pyridin-3-yl)-benzenesulfonyl]-pyrrolidine-2-carboxylic acid (1-cyano-cyclopropyl)-amide]	64.2	0.322
C[C@H](Oc1ccc(S(=O)(=O)[C@@H]2C[C@@H](C(=O)NC3(C#N)CC3)N(C(=O)C3(c4ncc(Cl)cc4F)CC3)C2)c(Cl)c1)C(F)(F)F [Example 27, (2S,4R)-1-(1-(5-chloro-3-fluoropyridin-2-yl)cyclopropanecarbonyl)-4-(2-chloro-4-((S)-1,1,1-trifluoropropan-2-yloxy)phenylsulfonyl)-N-(1-cyanocyclopropyl)pyrrolidine-2-carboxamide]	90	1.6
N#CC1(NC(=O)[C@@H]2C[C@@H](S(=O)(=O)c3ccccc3Cl)CN2C(=O)C2(c3ncc(Br)cc3F)CC2)CC1 [Example 8, (2S,4R)-1-[1-(5-Bromo-3-fluoro-pyridin-2-yl)-cyclopropanecarbonyl]-4-(2-chloro-benzenesulfonyl)-pyrrolidine-2-carboxylic acid (1-cyano-cyclopropyl)-amide]	19.2	0.438
N#CC1(NC(=O)[C@@H]2C[C@@H](S(=O)(=O)c3ccc(Cl)cn3)CN2C(=O)C2(c3ncc(Cl)cc3F)CC2)CC1 [Example 22, (2S,4R)-1-[1-(5-Chloro-3-fluoro-pyridin-2-yl)-cyclopropanecarbonyl]-4-(5-chloropyridine-2-sulfonyl)-pyrrolidine-2-carboxylic acid (1-cyano-cyclopropyl)-amide]	1970	3
N#CC1(NC(=O)[C@@H]2C[C@@H](Sc3ncccc3C(F)(F)F)CN2C(=O)C2(c3ncc(Cl)cc3F)CC2)CC1 [Example 21, (2S,4R)-1-[1-(5-Chloro-3-fluoro-pyridin-2-yl)-cyclopropanecarbonyl]-4-(3-trifluoromethyl-pyridin-2-ylsulfanyl)-pyrrolidine-2-carboxylic acid (1-cyano-cyclopropyl)-amide]	10000	275
Cc1cc(-c2ccc(S(=O)(=O)[C@@H]3C[C@@H](C(=O)NC4(C#N)CC4)N(C(=O)C4(c5ncc(Cl)cc5F)CC4)C3)c(Cl)c2)ccn1 [Example 31, (2S,4R)-1-(1-(5-chloro-3-fluoropyridin-2-yl)cyclopropanecarbonyl)-4-(2-chloro-4-(2-methylpyridin-4-yl)phenylsulfonyl)-N-(1-cyanocyclopropyl)pyrrolidine-2-carboxamide]	61.6	0.505
N#CC1(NC(=O)[C@@H]2C[C@@H](Sc3ccc(C(F)(F)F)cn3)CN2C(=O)C2(c3ncc(Cl)cc3F)CC2)CC1 [Example 20, (2S,4R)-1-[1-(5-Chloro-3-fluoro-pyridin-2-yl)-cyclopropanecarbonyl]-4-(5-trifluoromethyl-pyridin-2-ylsulfanyl)-pyrrolidine-2-carboxylic acid (1-cyano-cyclopropyl)-amide]	5060	393

Source: patent publication US9409882B2, “Pyridine derivatives” (Hoffmann-La Roche Inc., priority 2012, dated 2016)
